Source: ChEMBL document CHEMBL4354847, “Congenetic Hybrids Derived from Dearomatized Isoprenylated Acylphloroglucinol with Opposite Effects on Cav3.1 Low Voltage-Gated Ca2+ Channel” (J Med Chem, 2020)
Values belong to the compound of their own block, whether it stands above or below them. Active and inactive are the calls of the source.

Assays:
Assay type in all cases: cell-based
[1] = biological target: T-type calcium channel alpha 1G subunit (Mus musculus) (UniProt Q27YN9); experiment: (§1) Antagonist activity at mouse Cav3.1 expressed in HEK293T cells assessed as inhibition of current amplitude at holding potential of -100 mV by whole cell electrophysiological method
[2] = biological target: T1, T-type calcium channel alpha 1G subunit (Mus musculus, UniProt Q27YN9); experiment: as §1
[3] = biological target: T-type calcium channel alpha 1G subunit (Mus musculus) (UniProt Q27YN9); experiment: Antagonist activity at mouse Cav3.1 expressed in HEK293T cells assessed as inhibition of current amplitude at 10 uM at holding potential of -100 mV incubated prior to compound washout by whole cell electrophysiological method
[4] = biological target: T-type calcium channel alpha 1G subunit (Mus musculus) (UniProt Q27YN9); experiment: Agonist activity at mouse Cav3.1 expressed in HEK293T cells assessed as change in slope factor at 5 uM at holding potential of -100 mV by whole cell electrophysiological method
Mus musculus [5] = organism: Mus musculus; experiment: Antagonist activity at mouse Cav3.1 R1715H mutant expressed in HEK293T cells assessed as depolarization of action potential at 10 uM at holding potential of -100 mV by whole cell electrophysiological method
[6] = biological target: T-type calcium channel alpha 1G subunit (Mus musculus) (UniProt Q27YN9); experiment: Agonist activity at mouse Cav3.1 expressed in HEK293T cells assessed as decrease in half-maximal activation potential at 5 uM at holding potential of -100 mV incubated prior to compound washout by whole cell electrophysiological method
[7] = biological target: T-type calcium channel alpha 1G subunit (Mus musculus) (UniProt Q27YN9); experiment: Agonist activity at mouse Cav3.1 expressed in HEK293T cells assessed as change in time constant of activation at 5 uM at holding potential of -100 mV by whole cell electrophysiological method
[8] = biological target: T-type calcium channel alpha 1G subunit (Mus musculus) (UniProt Q27YN9); experiment: Agonist activity at mouse Cav3.1 expressed in HEK293T cells assessed as increase in current amplitude at 300 uM at holding potential of -100 mV measured up to 150 millisecs in presence of LVGCC blocker Ni2+ by whole cell electrophysiological method
Mus musculus [9] = organism: Mus musculus; experiment: Agonist activity at mouse Cav3.1 R1715H mutant expressed in HEK293T cells assessed as change in half-maximal activation potential at 10 uM at holding potential of -100 mV by whole cell electrophysiological method (reference value: -38 +/- 4.3 mV)
[10] = biological target: T-type calcium channel alpha 1G subunit (Mus musculus) (UniProt Q27YN9); experiment: Antagonist activity at mouse Cav3.1 expressed in HEK293T cells assessed as change in slope factor at 5 uM at holding potential of -100 mV by whole cell electrophysiological method
Mus musculus [11] = organism: Mus musculus; experiment: Agonist activity at mouse Cav3.1 R1715H mutant expressed in HEK293T cells assessed as shift in voltage dependence of activation at 10 uM at holding potential of -100 mV by whole cell electrophysiological method
Mus musculus [12] = organism: Mus musculus; experiment: Agonist activity at mouse Cav3.1 R1715H mutant expressed in HEK293T cells assessed as increase in 200 ms ramp from -100 to -40 mV after 100 ms hyperpolarization of -100 mV evoked peak of low threshold Ca2+ spike at 10 uM at -60 mV holding potential by whole cell electrophysiological method relative to control
[13] = biological target: T-type calcium channel alpha 1G subunit (Mus musculus) (UniProt Q27YN9); experiment: Antagonist activity at mouse Cav3.1 expressed in HEK293T cells assessed as change in time constant of inactivation at 5 uM at holding potential of -100 mV by whole cell electrophysiological method
[14] = Agonist activity at mouse Cav3.1 R1715H mutant expressed in HEK293T cells assessed as increase in current amplitude at holding potential of -100 mV by whole cell electrophysiological method; conditions: HEK-293T
[15] = biological target: T-type calcium channel alpha 1G subunit (Mus musculus) (UniProt Q27YN9); experiment: Agonist activity at mouse Cav3.1 expressed in HEK293T cells assessed as increase in current amplitude at 5 uM at holding potential of -100 mV measured after 12 to 14 secs by whole cell electrophysiological method
[16] = biological target: T1, T-type calcium channel alpha 1G subunit; experiment: Agonist activity at mouse Cav3.1 expressed in HEK293T cells assessed as increase in current amplitude at holding potential of -100 mV by whole cell electrophysiological method
[17] = biological target: T-type calcium channel alpha 1G subunit (Mus musculus) (UniProt Q27YN9); experiment: Agonist activity at mouse Cav3.1 expressed in HEK293T cells assessed as increase in current amplitude at 5 uM at holding potential of -100 mV in presence of hypatone-B by whole cell electrophysiological method
Mus musculus [18] = organism: Mus musculus; experiment: Agonist activity at mouse Cav3.1 R1715H mutant expressed in HEK293T cells assessed as change in slope factor at 10 uM at holding potential of -100 mV by whole cell electrophysiological method
[19] = biological target: T-type calcium channel alpha 1G subunit (Mus musculus) (UniProt Q27YN9); experiment: Agonist activity at mouse Cav3.1 expressed in HEK293T cells assessed as increase in window current at 5 uM at holding potential of -100 mV by whole cell electrophysiological method
[20] = biological target: T-type calcium channel alpha 1G subunit (Mus musculus) (UniProt Q27YN9); experiment: Agonist activity at mouse Cav3.1 expressed in HEK293T cells assessed as half-maximal activation potential at 5 uM at holding potential of -100 mV by whole cell electrophysiological method (reference value: -44 +/- 2.8 mV)
[21] = biological target: T-type calcium channel alpha 1G subunit (Mus musculus) (UniProt Q27YN9); experiment: Antagonist activity at mouse Cav3.1 expressed in HEK293T cells assessed as half-maximal inactivation potential at 5 uM at holding potential of -100 mV by whole cell electrophysiological method (reference value: -70.8 +/- 3 mV)
Mus musculus [22] = organism: Mus musculus; experiment: Antagonist activity at mouse Cav3.1 R1715H mutant expressed in HEK293T cells assessed as change in time constant of inactivation at 10 uM at holding potential of -100 mV by whole cell electrophysiological method
[23] = biological target: T-type calcium channel alpha 1G subunit (Mus musculus) (UniProt Q27YN9); experiment: Agonist activity at mouse Cav3.1 expressed in HEK293T cells assessed as increase in current amplitude at 3 to 30 uM at holding potential of -100 mV incubated prior to compound washout by whole cell electrophysiological method
[24] = biological target: T-type calcium channel alpha 1G subunit (Mus musculus) (UniProt Q27YN9); experiment: Antagonist activity at mouse Cav3.1 expressed in HEK293T cells assessed as increase in half-maximal activation potential at 5 uM at holding potential of -100 mV incubated prior to compound washout by whole cell electrophysiological method
Mus musculus [25] = organism: Mus musculus; experiment: Agonist activity at mouse Cav3.1 R1715H mutant expressed in HEK293T cells assessed as change in time constant of activation at 10 uM at holding potential of -100 mV by whole cell electrophysiological method
Mus musculus [26] = organism: Mus musculus; experiment: Agonist activity at mouse Cav3.1 R1715H mutant expressed in HEK293T cells assessed as normalized window current at 10 uM at holding potential of -100 mV by whole cell electrophysiological method
[27] = biological target: Voltage-dependent T-type calcium channel subunit alpha-1G (Homo sapiens, UniProt O43497); experiment: Agonist activity at Cav3.1 (unknown origin) expressed in HEK293T cells assessed as increase in current amplitude at holding potential of -100 mV by whole cell patch-clamp electrophysiological method
[28] = biological target: T-type calcium channel alpha 1G subunit (Mus musculus) (UniProt Q27YN9); experiment: Antagonist activity at mouse Cav3.1 expressed in HEK293T cells assessed as inhibition of current amplitude at 2 uM at holding potential of -100 mV in presence of hypatone-A by whole cell electrophysiological method

T1 sequence (Q27YN9 whole entry): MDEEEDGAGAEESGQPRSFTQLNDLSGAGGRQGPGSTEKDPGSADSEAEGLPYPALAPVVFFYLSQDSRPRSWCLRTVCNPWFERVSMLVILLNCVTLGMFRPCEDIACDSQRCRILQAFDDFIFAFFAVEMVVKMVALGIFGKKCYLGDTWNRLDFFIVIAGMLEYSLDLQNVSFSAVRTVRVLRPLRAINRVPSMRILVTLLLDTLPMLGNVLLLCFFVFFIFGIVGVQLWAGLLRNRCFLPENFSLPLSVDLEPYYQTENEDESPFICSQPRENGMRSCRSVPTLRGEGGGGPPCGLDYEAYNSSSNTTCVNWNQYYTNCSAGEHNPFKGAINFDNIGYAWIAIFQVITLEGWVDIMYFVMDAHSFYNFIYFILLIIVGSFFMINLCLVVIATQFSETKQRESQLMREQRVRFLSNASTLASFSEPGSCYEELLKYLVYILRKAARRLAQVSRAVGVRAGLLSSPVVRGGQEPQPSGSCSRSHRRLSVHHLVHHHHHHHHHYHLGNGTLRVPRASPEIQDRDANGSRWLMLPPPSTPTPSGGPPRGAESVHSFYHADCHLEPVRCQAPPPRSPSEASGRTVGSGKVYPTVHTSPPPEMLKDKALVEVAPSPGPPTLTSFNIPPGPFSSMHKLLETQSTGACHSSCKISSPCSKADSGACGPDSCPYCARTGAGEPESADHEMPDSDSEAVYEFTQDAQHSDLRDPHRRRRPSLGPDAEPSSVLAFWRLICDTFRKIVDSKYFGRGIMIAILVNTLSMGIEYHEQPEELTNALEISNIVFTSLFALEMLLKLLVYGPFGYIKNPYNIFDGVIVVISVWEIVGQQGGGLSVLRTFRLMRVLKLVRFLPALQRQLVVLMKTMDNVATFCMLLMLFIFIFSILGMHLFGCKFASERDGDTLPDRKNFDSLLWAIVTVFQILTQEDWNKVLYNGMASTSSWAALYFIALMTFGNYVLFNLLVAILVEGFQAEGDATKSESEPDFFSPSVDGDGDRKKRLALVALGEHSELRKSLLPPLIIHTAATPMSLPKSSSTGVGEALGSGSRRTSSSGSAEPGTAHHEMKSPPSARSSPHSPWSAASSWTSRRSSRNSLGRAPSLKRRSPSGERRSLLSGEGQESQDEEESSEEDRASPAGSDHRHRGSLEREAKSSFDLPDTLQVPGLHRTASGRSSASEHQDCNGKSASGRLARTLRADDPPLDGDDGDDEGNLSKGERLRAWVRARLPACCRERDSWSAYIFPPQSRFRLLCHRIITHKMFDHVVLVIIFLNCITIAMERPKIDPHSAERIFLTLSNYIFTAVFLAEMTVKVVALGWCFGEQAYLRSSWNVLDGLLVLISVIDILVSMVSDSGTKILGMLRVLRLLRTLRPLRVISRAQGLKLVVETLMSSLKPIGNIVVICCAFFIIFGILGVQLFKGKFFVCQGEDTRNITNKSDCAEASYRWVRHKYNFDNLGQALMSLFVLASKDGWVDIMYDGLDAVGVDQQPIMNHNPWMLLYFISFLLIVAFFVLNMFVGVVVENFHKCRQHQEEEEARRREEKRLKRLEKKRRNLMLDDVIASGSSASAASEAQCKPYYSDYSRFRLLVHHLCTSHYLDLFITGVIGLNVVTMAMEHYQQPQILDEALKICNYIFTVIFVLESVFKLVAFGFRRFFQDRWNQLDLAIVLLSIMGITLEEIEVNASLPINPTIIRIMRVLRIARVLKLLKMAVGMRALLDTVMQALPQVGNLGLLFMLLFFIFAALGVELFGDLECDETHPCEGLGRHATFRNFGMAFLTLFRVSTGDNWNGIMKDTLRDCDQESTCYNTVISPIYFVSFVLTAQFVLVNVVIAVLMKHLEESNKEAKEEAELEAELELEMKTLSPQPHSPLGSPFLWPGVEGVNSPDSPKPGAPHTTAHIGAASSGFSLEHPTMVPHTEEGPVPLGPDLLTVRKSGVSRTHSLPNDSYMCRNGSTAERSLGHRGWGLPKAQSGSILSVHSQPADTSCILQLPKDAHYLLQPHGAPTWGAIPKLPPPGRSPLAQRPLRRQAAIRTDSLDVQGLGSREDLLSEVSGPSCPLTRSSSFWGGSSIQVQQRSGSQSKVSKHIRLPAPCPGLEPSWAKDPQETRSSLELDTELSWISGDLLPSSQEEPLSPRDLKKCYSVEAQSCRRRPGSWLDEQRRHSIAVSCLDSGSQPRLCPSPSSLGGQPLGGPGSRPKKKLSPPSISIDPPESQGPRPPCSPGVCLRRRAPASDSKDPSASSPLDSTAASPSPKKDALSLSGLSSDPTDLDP
Sequence of T-type calcium channel alpha 1G subunit (Mus musculus) (Q27YN9 as listed by the source): as the sequence (Q27YN9 whole entry) above
Sequence of Voltage-dependent T-type calcium channel subunit alpha-1G (O43497 whole entry): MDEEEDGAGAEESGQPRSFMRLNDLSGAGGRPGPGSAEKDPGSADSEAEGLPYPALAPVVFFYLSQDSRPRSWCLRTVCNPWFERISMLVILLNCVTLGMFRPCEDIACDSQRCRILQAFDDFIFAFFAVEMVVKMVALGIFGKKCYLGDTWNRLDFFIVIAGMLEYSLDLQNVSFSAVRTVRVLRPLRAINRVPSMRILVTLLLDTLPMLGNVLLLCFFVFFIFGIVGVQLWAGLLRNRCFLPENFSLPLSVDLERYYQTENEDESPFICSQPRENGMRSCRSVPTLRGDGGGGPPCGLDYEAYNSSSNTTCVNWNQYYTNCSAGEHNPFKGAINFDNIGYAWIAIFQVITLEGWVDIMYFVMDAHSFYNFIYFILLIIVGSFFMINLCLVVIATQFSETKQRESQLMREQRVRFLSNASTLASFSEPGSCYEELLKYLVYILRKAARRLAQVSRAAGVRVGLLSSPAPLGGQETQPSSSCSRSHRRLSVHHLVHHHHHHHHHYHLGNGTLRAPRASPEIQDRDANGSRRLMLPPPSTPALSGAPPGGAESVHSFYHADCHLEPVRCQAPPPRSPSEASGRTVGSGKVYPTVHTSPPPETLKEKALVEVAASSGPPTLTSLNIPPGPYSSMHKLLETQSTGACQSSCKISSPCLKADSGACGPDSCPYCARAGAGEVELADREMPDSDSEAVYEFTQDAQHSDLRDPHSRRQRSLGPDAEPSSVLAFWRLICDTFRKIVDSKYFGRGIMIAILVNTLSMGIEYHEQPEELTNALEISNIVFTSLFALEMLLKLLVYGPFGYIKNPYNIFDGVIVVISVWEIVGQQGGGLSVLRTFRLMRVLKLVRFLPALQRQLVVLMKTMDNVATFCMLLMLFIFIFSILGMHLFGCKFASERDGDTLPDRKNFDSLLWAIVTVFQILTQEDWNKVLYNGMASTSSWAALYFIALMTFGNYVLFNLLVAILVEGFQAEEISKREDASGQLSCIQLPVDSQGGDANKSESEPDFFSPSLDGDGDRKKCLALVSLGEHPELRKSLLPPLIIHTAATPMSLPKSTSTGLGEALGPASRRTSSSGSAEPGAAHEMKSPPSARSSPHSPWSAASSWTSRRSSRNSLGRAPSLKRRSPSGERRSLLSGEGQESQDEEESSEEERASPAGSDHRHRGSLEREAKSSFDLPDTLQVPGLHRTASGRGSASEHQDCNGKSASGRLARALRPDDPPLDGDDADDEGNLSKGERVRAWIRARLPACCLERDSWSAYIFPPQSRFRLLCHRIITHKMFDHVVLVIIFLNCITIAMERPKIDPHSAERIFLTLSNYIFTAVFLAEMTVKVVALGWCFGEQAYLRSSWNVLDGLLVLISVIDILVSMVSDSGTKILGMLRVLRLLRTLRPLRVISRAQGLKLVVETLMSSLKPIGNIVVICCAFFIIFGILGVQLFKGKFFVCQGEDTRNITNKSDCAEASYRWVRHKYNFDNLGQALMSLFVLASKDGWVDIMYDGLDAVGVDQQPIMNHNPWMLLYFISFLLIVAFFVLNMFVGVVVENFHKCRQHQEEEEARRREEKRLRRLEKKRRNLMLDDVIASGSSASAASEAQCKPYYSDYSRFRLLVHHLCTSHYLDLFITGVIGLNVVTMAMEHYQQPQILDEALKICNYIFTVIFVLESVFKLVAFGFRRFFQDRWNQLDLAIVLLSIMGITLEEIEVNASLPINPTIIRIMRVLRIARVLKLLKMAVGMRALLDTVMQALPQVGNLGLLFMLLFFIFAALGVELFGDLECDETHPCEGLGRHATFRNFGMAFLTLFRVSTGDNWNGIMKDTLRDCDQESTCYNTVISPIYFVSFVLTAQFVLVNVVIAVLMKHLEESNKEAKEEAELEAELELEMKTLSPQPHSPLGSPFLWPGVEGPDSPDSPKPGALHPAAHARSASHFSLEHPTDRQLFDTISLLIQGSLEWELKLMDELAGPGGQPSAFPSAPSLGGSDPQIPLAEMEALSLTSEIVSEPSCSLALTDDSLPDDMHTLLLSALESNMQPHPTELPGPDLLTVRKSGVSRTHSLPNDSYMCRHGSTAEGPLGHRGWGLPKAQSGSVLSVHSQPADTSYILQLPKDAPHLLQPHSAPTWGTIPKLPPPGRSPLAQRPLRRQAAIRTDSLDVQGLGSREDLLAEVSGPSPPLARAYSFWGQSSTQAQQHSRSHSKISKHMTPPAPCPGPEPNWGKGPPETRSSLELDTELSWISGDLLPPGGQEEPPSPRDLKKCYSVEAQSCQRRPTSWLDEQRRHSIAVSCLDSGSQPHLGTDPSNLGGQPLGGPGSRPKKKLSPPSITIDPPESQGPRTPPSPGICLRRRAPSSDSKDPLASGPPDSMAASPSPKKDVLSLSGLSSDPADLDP

Structure (SMILES): C=C(C)[C@H]1CC[C@@](C)(O)[C@@H](C2=C(O)C(CC=C(C)C)(CC=C(C)C)C(=O)C(C(=O)C(C)C)=C2O)C1
inhibition [1]: Dose-dependent effect
IC50 [2]: 3.5 µM
inhibition [3]: Active

Structure (SMILES): C=C(C)[C@H]1CC[C@@](C)(O)[C@@H](C2=C(O)C(CC=C(C)C)(CC=C(C)C)C(=O)C(C(=O)C(C)CC)=C2O)C1 (some centres undefined)
inhibition [1]: Dose-dependent effect
IC50 [2]: 0.19 µM
inhibition [3]: Active

Structure (SMILES): C=C(C)[C@H]1CC[C@@](C)(O)[C@@H](C2=C(O)C(CC=C(C)C)(CC=C(C)C)C(=O)C(C(=O)c3ccccc3)=C2O)C1
inhibition [1]: Dose-dependent effect
IC50 [2]: 2.3 µM
inhibition [3]: Active
inhibition [28]: Active

Further lines, with some results ahead:

Activity [4]: inactive
Activity [6]: inactive
Activity [7]: inactive
Activity [8]: inactive
Activity [10]: inactive
Activity [13]: inactive
EC50 [14]: 9.6 µM
Activity [15]: Active
EC50 [16]: 3.8 µM
Activity [17]: Active
Activity [19]: Active
V1/2 [20]: -47.6 mV
V1/2 [21]: -66.5 mV
Activity [23]: inactive
Activity [24]: inactive
Structure (SMILES): CC(C)=CCC1(CC=C(C)C)C(=O)C(C(=O)c2ccccc2)=C2O[C@]3(C)CC[C@H]4C[C@@H]3[C@]2(C1=O)C4(C)C
Activity (Mus musculus [5]): inactive
V1/2 (Mus musculus [9]): -43.8 mV
Activity (Mus musculus [11]): inactive
Activity (Mus musculus [12]): 26.7%
Activity (Mus musculus [18]): inactive
Activity (Mus musculus [22]): inactive
Activity (Mus musculus [25]): inactive
Activity (Mus musculus [26]): Active

EC50 [27]: 12.5 µM
Structure (SMILES): CC(C)C1=C/C(=C2\C(=O)C=C3C(C)(C)CCC[C@@]32C)OC1=O
